Calls of active or inactive are those of the source.
Experiments:
[1] = target: T1, Aminopeptidase N (Plasmodium falciparum FcB1/Columbia, UniProt O96935); experiment: malaria alanyl aminopeptidase activity blockers – biochemical, fluorogenic H-Leu-NHMec substrate, 1536-well (AID 1445); parameters: species or system Plasmodium falciparum 3D7, 3D7
T1 sequence (O96935 whole entry): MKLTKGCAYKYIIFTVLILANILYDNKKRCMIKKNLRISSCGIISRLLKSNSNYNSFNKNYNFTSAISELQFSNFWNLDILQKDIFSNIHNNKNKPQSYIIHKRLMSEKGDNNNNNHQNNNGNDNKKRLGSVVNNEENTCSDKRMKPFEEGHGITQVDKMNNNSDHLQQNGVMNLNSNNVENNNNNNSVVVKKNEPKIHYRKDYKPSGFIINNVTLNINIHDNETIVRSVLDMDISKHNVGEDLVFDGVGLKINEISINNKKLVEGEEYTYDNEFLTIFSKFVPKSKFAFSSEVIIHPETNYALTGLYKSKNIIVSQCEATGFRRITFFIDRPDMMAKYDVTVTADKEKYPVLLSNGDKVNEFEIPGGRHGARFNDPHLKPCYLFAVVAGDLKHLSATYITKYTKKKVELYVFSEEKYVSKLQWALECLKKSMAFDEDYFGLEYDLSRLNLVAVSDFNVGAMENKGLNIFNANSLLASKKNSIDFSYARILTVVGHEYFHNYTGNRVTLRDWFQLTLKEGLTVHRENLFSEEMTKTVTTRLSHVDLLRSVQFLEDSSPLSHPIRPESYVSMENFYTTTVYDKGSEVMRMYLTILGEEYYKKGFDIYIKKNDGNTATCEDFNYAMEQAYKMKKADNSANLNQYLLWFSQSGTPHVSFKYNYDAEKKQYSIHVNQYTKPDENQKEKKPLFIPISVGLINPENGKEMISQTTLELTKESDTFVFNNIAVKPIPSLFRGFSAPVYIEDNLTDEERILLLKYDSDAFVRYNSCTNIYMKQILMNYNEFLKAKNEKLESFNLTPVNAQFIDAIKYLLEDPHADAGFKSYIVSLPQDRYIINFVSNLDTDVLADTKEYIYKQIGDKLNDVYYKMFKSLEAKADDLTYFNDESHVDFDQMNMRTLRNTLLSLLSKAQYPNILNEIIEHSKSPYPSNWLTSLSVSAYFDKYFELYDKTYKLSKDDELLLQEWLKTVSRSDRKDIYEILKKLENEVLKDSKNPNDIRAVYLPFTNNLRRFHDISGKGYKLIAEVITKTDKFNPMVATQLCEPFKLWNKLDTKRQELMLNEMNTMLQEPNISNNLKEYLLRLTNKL

[2] = target: T2, Endoribonuclease toxin MazF (Escherichia coli K-12, UniProt P0AE70); experiment: substrate-only fluorescence increase artefacts – biochemical, single-stranded RNase substrate, counter-screen for MazEF activator project, dose response (AID 588502); assay type: functional
T2 sequence (P0AE70 whole entry): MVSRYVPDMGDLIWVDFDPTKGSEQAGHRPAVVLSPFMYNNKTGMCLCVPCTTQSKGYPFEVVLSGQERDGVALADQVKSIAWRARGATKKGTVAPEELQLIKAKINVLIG

[3] = target: T2, Endoribonuclease toxin MazF; experiment: activation of MazEF endoribonuclease cleavage – biochemical, fluorescence, single-stranded RNA substrate, uHTS hits, dose response (AID 588481); assay type: functional
[4] = target: Cytochrome P450 3A4 (Homo sapiens, UniProt P08684); settings: Potency;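 further: confirmatory qHTS run detecting inhibitors and substrates of CYP3A4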
Sequence of Cytochrome P450 3A4 (P08684 whole entry): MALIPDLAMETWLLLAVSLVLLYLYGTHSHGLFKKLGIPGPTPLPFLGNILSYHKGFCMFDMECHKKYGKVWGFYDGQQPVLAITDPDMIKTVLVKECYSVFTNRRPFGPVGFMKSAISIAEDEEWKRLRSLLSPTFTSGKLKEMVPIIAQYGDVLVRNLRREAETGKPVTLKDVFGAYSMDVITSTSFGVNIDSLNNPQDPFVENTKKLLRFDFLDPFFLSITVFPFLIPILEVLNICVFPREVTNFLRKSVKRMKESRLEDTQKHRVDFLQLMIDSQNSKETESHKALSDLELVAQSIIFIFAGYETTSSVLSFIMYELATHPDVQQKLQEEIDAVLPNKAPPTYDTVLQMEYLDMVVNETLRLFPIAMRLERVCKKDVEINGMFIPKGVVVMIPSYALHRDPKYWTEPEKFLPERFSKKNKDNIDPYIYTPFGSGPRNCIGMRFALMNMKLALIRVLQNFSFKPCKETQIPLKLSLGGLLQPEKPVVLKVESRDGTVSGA

[5] = NIH-3T3 fibroblast cytotoxicity, dose response, cytotoxicity control, cell-based, fluorescence, Alamar Blue, secondary assay (AID 2327); assay type: functional;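 further: NIH-3T3 mouse fibroblasts cultured with fluconazole at 8 µg/mL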
[6] = fluconazole-exposed Candida albicans growth modulators – fluorescence, retest, confirmation (AID 2467); assay type: functional, cell-based
[7] = A cytotoxicity screen of small molecule inhibitors of the PhoP region in Salmonella typhi identified in the primary screen. [Related pubchem assays: 1850, 1864, 1985 ]; assay type: functional
[8] = Trypanosoma cruzi growth suppression in host cells – NIH3T3 host cells, beta-gal luminescence, confirmation (AID 2044); assay type: functional, cell-based;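 further: intracellular parasites grown in NIH/3T3 mouse fibroblasts as host cells; luminescent beta-galactosidase reporter signal from transgenic T. cruzi replicating inside host cells; inhibitors lower the luminescence signal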
[9] = NIH3T3 cell viability loss – ATP luminescence, mouse fibroblasts, counter-screen, dose response (AID 2010); assay type: functional, cell-based;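 further: cells exposed to compound for about 90 hours before reading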
[10] = target: Genome polyprotein (dengue virus type 2, UniProt P29990); experiment: flavivirus cap methylation enzyme inhibition – biochemical, confirmation dose response, primary screen (AID 588689); assay type: functional
Sequence of Genome polyprotein (P29990 2492-3391 limits assumed): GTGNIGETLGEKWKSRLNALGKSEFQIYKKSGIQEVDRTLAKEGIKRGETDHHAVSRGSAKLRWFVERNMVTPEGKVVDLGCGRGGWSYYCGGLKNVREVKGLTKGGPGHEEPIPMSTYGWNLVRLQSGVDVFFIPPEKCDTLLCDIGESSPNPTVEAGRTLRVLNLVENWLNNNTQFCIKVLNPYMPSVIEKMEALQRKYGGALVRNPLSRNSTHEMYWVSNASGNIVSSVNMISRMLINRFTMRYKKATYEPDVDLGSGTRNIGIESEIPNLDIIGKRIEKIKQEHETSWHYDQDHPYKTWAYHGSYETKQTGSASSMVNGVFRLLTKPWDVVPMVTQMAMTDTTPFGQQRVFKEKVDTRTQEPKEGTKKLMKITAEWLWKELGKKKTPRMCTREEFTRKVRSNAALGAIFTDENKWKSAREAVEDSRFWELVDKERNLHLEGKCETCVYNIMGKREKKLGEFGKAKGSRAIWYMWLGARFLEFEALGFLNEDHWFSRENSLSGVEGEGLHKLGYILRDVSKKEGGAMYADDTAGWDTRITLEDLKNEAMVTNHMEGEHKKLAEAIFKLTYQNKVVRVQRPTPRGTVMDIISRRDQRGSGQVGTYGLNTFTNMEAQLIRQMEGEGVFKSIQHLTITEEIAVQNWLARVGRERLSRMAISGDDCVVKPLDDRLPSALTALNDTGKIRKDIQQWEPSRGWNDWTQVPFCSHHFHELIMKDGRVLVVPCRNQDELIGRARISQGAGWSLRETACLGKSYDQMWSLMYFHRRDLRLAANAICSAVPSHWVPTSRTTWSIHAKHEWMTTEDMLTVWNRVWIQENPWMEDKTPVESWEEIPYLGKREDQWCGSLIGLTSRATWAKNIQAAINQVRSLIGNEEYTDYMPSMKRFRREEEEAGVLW

[11] = tested on: Vero; experiment: viability of Vero cells under compound – cytotoxicity control for flavivirus capping enzyme inhibitors (AID 588742); assay type: functional; settings: Chlorocebus sabaeus
[12] = target: Dual specificity tyrosine-phosphorylation-regulated kinase 1A (Rattus norvegicus, UniProt Q63470); assay type: biochemical, Homo sapiens
[13] = THP-1 cell cytotoxicity, dose response, cytotoxicity control for non-replicating M. tuberculosis project (AID 489025); assay type: functional
[14] = Vero E6 cell cytotoxicity, dose response, cytotoxicity control for non-replicating M. tuberculosis project, secondary assay (AID 492998); assay type: functional, VeroE6; settings: Vero C1008
[15] = cells; assay type: functional
[16] = target: T3, Corticotropin-releasing factor receptor 2/Corticotropin-releasing factor-binding protein (Homo sapiens, UniProt P24387+Q13324); experiment: activators of CRF receptor 2 with binding protein – uHTS hits, confirmation (AID 602473); assay type: functional; settings: read-out: EC50_Mean
T3 sequence (Q13324 whole entry): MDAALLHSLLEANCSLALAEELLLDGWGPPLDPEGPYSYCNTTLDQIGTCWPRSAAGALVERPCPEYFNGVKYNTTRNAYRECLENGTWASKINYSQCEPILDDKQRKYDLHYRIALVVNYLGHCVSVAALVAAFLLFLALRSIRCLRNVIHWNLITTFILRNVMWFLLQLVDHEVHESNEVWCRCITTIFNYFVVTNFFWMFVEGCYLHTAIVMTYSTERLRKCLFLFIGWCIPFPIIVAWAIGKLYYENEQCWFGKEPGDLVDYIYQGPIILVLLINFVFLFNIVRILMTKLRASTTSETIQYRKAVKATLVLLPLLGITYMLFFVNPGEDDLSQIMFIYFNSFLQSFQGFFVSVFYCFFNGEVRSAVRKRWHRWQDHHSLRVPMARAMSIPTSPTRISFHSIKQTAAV
T3 sequence (P24387 whole entry): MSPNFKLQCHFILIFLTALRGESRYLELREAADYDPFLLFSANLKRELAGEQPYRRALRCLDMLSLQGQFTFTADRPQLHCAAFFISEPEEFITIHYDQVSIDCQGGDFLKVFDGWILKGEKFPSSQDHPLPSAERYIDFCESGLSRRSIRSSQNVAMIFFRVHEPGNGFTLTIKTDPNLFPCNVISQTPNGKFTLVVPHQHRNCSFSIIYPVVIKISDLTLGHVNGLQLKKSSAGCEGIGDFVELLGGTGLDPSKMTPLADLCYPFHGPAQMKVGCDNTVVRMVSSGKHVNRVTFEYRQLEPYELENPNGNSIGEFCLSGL

Structure (SMILES): CN(C)c1oc(/C=C/c2ccccc2)nc1C#N
- IC50 [1]: 23.9 µM (active)

Structure (SMILES): COc1ccc2c(C)cc(SCC(=O)Nc3cc(C(N)=O)cc(C(N)=O)c3)nc2c1
- EC50 [2]: > 99 µM (inactive)
- EC50 [3]: > 99 µM (inactive)

Structure (SMILES): CCOC(=O)OCC1OC(C#Cc2ccc(C)cc2C)C=CC1OC(=O)OCC (stereo not given)
- AC50 [4]: 3.98 µM (inconclusive)

Structure (SMILES): O=C(Nc1nonc1NC(=O)c1cccs1)c1cccs1
- EC50 [5]: > 150 µM (inactive)
- EC50 [6]: 0.44 µM (active)
- EC50 [7]: > 50 µM (active)

Structure (SMILES): O=C(Nc1cccc([N+](=O)[O-])c1)Nc1ccc2c(c1)CCC2
- EC50 [2]: > 99 µM (inactive)
- EC50 [8]: 3.27 µM (active)
- EC50 [3]: > 99 µM (inactive)
- EC50 [9]: > 60 µM (not active)

Structure (SMILES): O=C(NCCN1CCOCC1)c1cc2c(=O)n3ccccc3nc2n1Cc1ccccc1
- IC50 [1]: 102 µM (active)

Structure (SMILES): Cc1ccc(S(=O)(=O)N2[C@@H](c3ccc(Br)cc3)C(C(=O)O)=CC[C@H]2c2ccc(C(C)C)cc2)cc1
- IC50 [10]: 32.9 µM (active)
- CC50 [11]: > 40 µM (active)

Structure (SMILES): Cc1cc(C(=O)NN=C(S)NCc2ccco2)nn1C
- IC50 [1]: 57.7 µM (active)

Structure (SMILES): COc1ccc(/C=C2\SC(N3CCCCC3)=NC2=O)cc1
- AC50 [12]: 0.308 µM (active)

Structure (SMILES): Cc1cc(Br)c(Cl)cc1NC(=O)CN1C(=O)C2C3CC(c4ccccc4)C(C3)C2C1=O (stereo not given)
- EC50 [8]: 2.59 µM (active)
- EC50 [9]: 7.41 µM (active)
- CC50 [11]: > 40 µM (active)

Structure (SMILES): CCNC(=S)NCC
- AC50 [4]: 6.31 µM (inconclusive)

Structure (SMILES): Cc1ccccc1NC(=O)C1c2cccc[n+]2CC(=O)N1c1c(C)cccc1C (stereo not given)
- EC50 [2]: > 99 µM (inactive)
- EC50 [3]: > 99 µM (inactive)

Structure (SMILES): COc1cc(C/C=C/c2ccccc2)c(OC)cc1O [VIOLASTYRENE]
- AC50 [4]: 39.8 µM (inconclusive)

Structure (SMILES): CCCCCCC#CC1C=CC(Oc2ccc(C=O)cc2)C(CO)O1 (stereo not given)
- AC50 [4]: 3.98 µM (inconclusive)

Structure (SMILES): O=C(Nc1ncc([N+](=O)[O-])s1)c1cccs1
- EC50 [5]: > 150 µM (inactive)
- CC50 [13]: 34.3 µM (active)
- CC50 [14]: > 20 µM (active)
- EC50 [6]: 0.069 µM (active)

Structure (SMILES): COc1ccc(OC)c(NC(=O)C(=O)NNC(=O)C23CC4CC(CC(C4)C2)C3)c1
- CC50 [13]: > 40 µM (active)
- CC50 [14]: > 20 µM (active)
- IC50 [15]: 8.62 µM (active)

Structure (SMILES): COc1ccc(/C=N/Nc2ccc([N+](=O)[O-])cc2S(=O)(=O)N2CCN(C)CC2)cc1
- EC50 [2]: 8.43 µM (active)
- EC50 [16]: 6.27 µM (active)
- EC50 [3]: > 99 µM (inactive)

Structure (SMILES): Cc1ccc(S(=O)(=O)NCC(=O)OCN2C(=O)c3ccccc3C2=O)cc1
- EC50 [7]: > 50 µM (active)

Source: ChEMBL document CHEMBL1201862, “PubChem BioAssay data set” (2004)
